Results published in patent US20040096815A1, “Method of identifying an eventual modification of at least one biological parameter making use of living cells which are subjected to a stress and living cells which are not subjected to this same stress” (COLETICA, priority 2002, published 2004).

Experiments:
[1] = test system: normal human keratinocytes in monolayer; assay: hBD2 and hBD3 expression (RT-PCR, band intensity vs actin) in keratinocytes in monolayer; format: cell-based; conditions: 100 ng/ml, 16 hours
Protocol: The normal human keratinocytes are cultivated in monolayer on 96-wells culture plates, in a defined medium without serum and enriched with calcium (final concentration 1.7 mM).
At 80% of confluence, the cells are placed in contact with a chemical stress, i.e. molecules which mimic a microbial attack, such as TNFα (100 ng/ml) or IFNγ (100 ng/ml), for 16 hours. Keratinocytes which are non-stressed, i.e. which are not placed in contact with the chemical substances mimicking a microbial attack, are used in a model of reconstructed epidermis.
After 16 hours, the supernatants are collected and the cells are dry frozen at −80° C. after a rinsing with PBS.
The total RNAs are extracted with the aid of a 96-wells fluo extraction kit on silica columns and are determined on a 96-wells spectrophotometer at 260 and 280 nm. The RNAs are diluted at 5 ng/μl.
The one-step qualitative RT-PCR is carried out on 50 ng of RNA (initial) in 96 wells, on actin, hBD2 and hBD3. The primers are used at 0.5 μM and are from the literature: hBD2sense: 5′-[…]-3′; hBD2antisense: 5′-GGAGCCCJTlCTGMTC CGCA-3′ (Harder J. et al., A peptide antibiotic from human skin. Nature 1997; 387: 861); hBD3sense: 5′-[…]-3′, hBD3 antisense: 5′-[…] […]-3′; actin sense: 5′-[…]-3′, actin antisense: 5′-[…]lTTC-3′ (Harder J. et al., Isolation and characterization of hBD3, a novel human inducible peptide antibiotic. J. Biol. Chem. 2001; 276: 5707-5713).
The samples are placed in a thermocycler and following a common program of amplification: 50° C., 30 mins; 94° C., 2 mins; (94° C., 30 secs; 60° C., 30 sec; 68° C., 30 sec) 32 cycles for the defensins and 30 cycles for the actin; 72° C., 10 min; 14° C., infinity.
After amplification, the products are mixed at the rate of 3 μl of products of amplification of actin+6 μl of products of amplification of hBD2+6 μl of products of amplification of hBD3. 5 μl of a mixture of filler buffer and water (2/3) are added and the final 20 μl are deposited on a pre-poured 2% agarose gel. The samples migrate in 30 minutes and the bands are visualized under UV in a black chamber and are photographed digitally.
(§1) The photographs of the gels are analyzed by an image treatment software which quantifies the intensity of the bands. The ratios of intensity of the hBD2/actin and hBD3/actin bands are compared on the one hand between the monolayer model and the 3D model (reconstructed epidermis) in a non-stressed condition, and, on the other hand, following the effect of a stress (cells treated with TNFβ or IFNγ).

[2] = test system: reconstructed epidermis (foreskin keratinocytes); assay: hBD2 and hBD3 expression (RT-PCR, band intensity vs actin) in 3D reconstructed epidermis; format: cell-based, human; conditions: 100 ng/ml, 24 hours
Protocol: At the end of experimentation, the reconstructed epidermis are treated in the following manner:
1 sample undergoes no treatment (model comprising reference cells=negative control).
1 sample undergoes no treatment with the actives but undergoes various types of stress at the end of culture (model comprising stressed cells=positive control), e.g. incubation in the presence of TNFα at 100 ng/ml, IFN γ100 ng/ml.
1 sample undergoes the treatment with the active (1% in the culture medium for 24 hours) and then a stress (equivalent to the positive control).
The RNAs are diluted at 5 ng/μl and are treated as described above.
as §1

| Substance | HBD2, ratio of intensity of the hBD2/actin bands [1] | HBD3, ratio of intensity of the hBD3/actin bands [1] | HBD2, ratio of intensity of the hBD2/actin bands [2] | HBD3, ratio of intensity of the hBD3/actin bands [2] |
| --- | --- | --- | --- | --- |
| IFNγ: molecule mimicking a microbial attack, used as stress | 0.450 | 0.370 | 0.581 | 0.492 |
| TNFα | 1.240 | 0.266 | 1.617 | 0.546 |
